Assay results as given in ChEMBL document CHEMBL1128919, “Synthesis and characterization of cyclic ATP-ribose: a potent mediator of calcium release” (Bioorg Med Chem Lett, 1996).

Species on record: Rattus norvegicus
Test: Half-maximal effective dose for inducing [Ca2+] release from rat brain microsomes
Format: functional

SMILES: N=c1c2ncn3c2ncn1[C@@H]1O[C@H](COP(=O)(O)OP(=O)(O)OP(=O)(O)OC[C@H]2O[C@@H]3[C@H](O)[C@@H]2O)[C@@H](O)[C@H]1O
- ED50: 0.8 µM
